The record followed here is US10981913B2, “11C -labeled 06 -benzylguanine, pet probe capable of visualizing 06-methyl guanine methyl-transferase activity, and production method of the same” (NATIONAL CENTER FOR GERIATRICS AND GERONTOLOGY, priority 2016, dated 2021).

The structures appear in SMILES notation. Several values for one entry are separate records, joined by “and”; a condition that tells them apart may be missing. Identical values can stand only once. Entries after “also recorded” stand apart in the source; their conditions may differ. Like-named read-outs stand apart in the source and are kept apart here.

Data set [1] in a line: Pharmacokinetics test using rats (brain permeability, blood and brain tissue by HPLC). It is filed as in vivo, Sprague-Dawley rats. Conditions: rat; for concentration at 30 min / Kp at 0.5 h / Kp at 30 min / concentration at 32 min / concentration at 44 min / Kp: Sprague-Dawley, iv; for concentration at 30 min / Kp at 0.5 h / Kp at 30 min / Brain/Plasma ratio / Conc. HPLC (concentration of compound in brain homogenate) / Conc. brain / concentration at 32 min / concentration at 44 min / Kp: 10 mg/kg; for Kp at 30 min / concentration of the compound in the brain based on the total dose: 30 minutes after administration; for Kp at 30 min: read-out: ratio of brain concentration to the concentration in the plasma; for Brain/Plasma ratio / Conc. HPLC (concentration of compound in brain homogenate) / Conc. brain: listed as mMeBG (2); for metabolism after intravenous administration (plasma concentration of compound and metabolites over time): i.v., FIGS. 7 to 9; for Kp: plasma 30 min. The method, then: Regarding O^6-(3-methylbenzyl) guanine (2) and O^6-(4-methylbenzyl) guanine (3) not labeled with ^11C synthesized by the above method (that is, cold), brain permeability was evaluated by the following method.
After intravenous administration (10 mg/kg) of O^6-(3-methylbenzyl) guanine (2) or O^6-(4-methylbenzyl) guanine (3) to Sprague-Dawley rats, blood and brain tissues were collected after a predetermined time, and analyzed by HPLC.

A further data set can be described thus: stability in the plasma. Format: in vitro ADME.
The target in another data set is T1, MGMT (Homo sapiens, UniProt P16455).
T1 sequence (P16455 1-207): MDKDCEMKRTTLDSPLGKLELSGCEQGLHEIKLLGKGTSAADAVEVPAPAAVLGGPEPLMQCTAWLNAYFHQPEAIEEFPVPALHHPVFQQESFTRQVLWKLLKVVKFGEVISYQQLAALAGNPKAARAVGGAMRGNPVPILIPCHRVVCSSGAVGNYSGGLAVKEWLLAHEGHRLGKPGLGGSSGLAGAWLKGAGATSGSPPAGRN
In words: enzyme inhibitory activity against MGMT using fluorescent labeled oligonucleotide substrates. Conditions: FIG. 1. Format: biochemical. An excerpt: The introduction position of the [^11C] methyl group of the benzene ring present in the above-mentioned O^6-benzylguanine (1) was investigated. […] Erickson, K. D. Miller, B. H. Mock, B. E. Glick-Wilsob, W. L. Winkel, K. L. Stone, K. A. Carlson, Synth. Commun. 2003, 33, 941-952.

The mark [2] stands for this setting: i.v. 10 mg/kg, 30 min, under anaesthesia, fasting, individual animals.
Where [3] appears, read: i.v. 10 mg/kg, 30 min, under anaesthesia, nonfasting, individual animals.
Setting [4] is: i.v. 10 mg/kg, 30 min, under nonanaesthesia, fasting, individual animals.
Where [5] appears, read: brain homogenate, i.v. 10 mg/kg, under anaesthesia, fasting, read-out: Conc. HPLC (concentration of compound in brain homogenate).
[6] abbreviates: brain, i.v. 10 mg/kg, under anaesthesia, fasting, read-out: Conc. brain.

As for `Cc1cccc(COc2nc(N)nc3nc[nH]c23)c1` [Compound 2, O^6-(3-methylbenzyl) guanine], the concentration at 30 min stood at 513 ng/mL in data set [1] (brain homogenate, i.v. 10 mg/kg, 30 min, under anaesthesia, fasting, average, read-out: Conc. HPLC (brain homogenate), Ave.); 568 ng/mL in data set [1] (brain homogenate, i.v. 10 mg/kg, 30 min, under anaesthesia, fasting, individual animals, read-out: Conc. HPLC (concentration of compound in brain homogenate)); 663 ng/mL in data set [1] (brain homogenate, i.v. 10 mg/kg, 30 min, under anaesthesia, nonfasting, average, read-out: Conc. HPLC (brain homogenate), Ave.); 784 ng/mL in data set [1] (brain homogenate, i.v. 10 mg/kg, 30 min, under anaesthesia, nonfasting, individual animals, read-out: Conc. HPLC (concentration of compound in brain homogenate)); 523 ng/mL in data set [1] (brain homogenate, i.v. 10 mg/kg, 30 min, under nonanaesthesia, fasting, average, read-out: Conc. HPLC (brain homogenate), Ave.); 536 ng/mL in data set [1] (brain homogenate, i.v. 10 mg/kg, 30 min, under nonanaesthesia, fasting, individual animals, read-out: Conc. HPLC (concentration of compound in brain homogenate)). Further, the concentration at 30 min in data set [1] (brain, i.v. 10 mg/kg, 30 min, under anaesthesia, fasting, average, read-out: Conc. brain, Ave.) was 1350 ng/mL; in data set [1] (brain, i.v. 10 mg/kg, 30 min, under anaesthesia, fasting, individual animals, read-out: Conc. brain), 1500 ng/mL; in data set [1] (brain, i.v. 10 mg/kg, 30 min, under anaesthesia, nonfasting, average, read-out: Conc. brain, Ave.), 1660 ng/mL; in data set [1] (brain, i.v. 10 mg/kg, 30 min, under anaesthesia, nonfasting, individual animals, read-out: Conc. brain), 1890 ng/mL; in data set [1] (brain, i.v. 10 mg/kg, 30 min, under nonanaesthesia, fasting, average, read-out: Conc. brain, Ave.) it was 1380 ng/mL; in data set [1] (brain, i.v. 10 mg/kg, 30 min, under nonanaesthesia, fasting, individual animals, read-out: Conc. brain) it was 1400 ng/mL. The concentration at 30 min is 5190 ng/mL in data set [1] (plasma, average (n = 3), 30 min after i.v. 10 mg/kg of 2, rat under nonanaesthesia and fasting, other rats than brain sample, read-out: Conc. Plasma); 4450 ng/mL in data set [1] (plasma, average (n = 5), 30 min after i.v. 10 mg/kg of 2, rat under anaesthesia and fasting, other rats than brain sample, read-out: Conc. Plasma). For the same compound, the Kp at 0.5 h is 0.303 in data set [1] (brain, i.v. 10 mg/kg, 30 min, under anaesthesia, fasting, average, read-out: Brain/Plasma ratio, Ave.); 0.336 in data set [1] (brain, i.v. 10 mg/kg, 30 min, under anaesthesia, fasting, individual animals, read-out: Brain/Plasma ratio); 0.373 in data set [1] (brain, i.v. 10 mg/kg, 30 min, under anaesthesia, nonfasting (plasma value from anaesthesia, fasting rats), average, read-out: Brain/Plasma ratio, Ave.); 0.425 in data set [1] (brain, i.v. 10 mg/kg, 30 min, under anaesthesia, nonfasting (plasma value from anaesthesia, fasting rats), individual animals, read-out: Brain/Plasma ratio); 0.265 in data set [1] (brain, i.v. 10 mg/kg, 30 min, under nonanaesthesia, fasting, average, read-out: Brain/Plasma ratio, Ave.); 0.27 in data set [1] (brain, i.v. 10 mg/kg, 30 min, under nonanaesthesia, fasting, individual animals, read-out: Brain/Plasma ratio). The Kp at 30 min in data set [1] (brain, i.v. 10 mg/kg) was determined as 0.3. Further, the “accumulation in the brain” value in data set [1] (i.v. 10 mg/kg) was “accumulated in the brain”. In addition, the Brain/Plasma ratio in data set [1] (setting [2]) is 0.275 and 0.298; in data set [1] (i.v. 10 mg/kg, 30 min, under anaesthesia, nonfasting (plasma value from anaesthesia, fasting rats), individual animals) it was 0.398 and 0.296; in data set [1] (setting [4]) it was 0.315 and 0.255 and 0.249 and 0.229 and 0.277. Also, the “Conc. HPLC (concentration of compound in brain homogenate)” value in data set [1] (setting [2]) was 464 ng/mL and 507 ng/mL; in data set [1] (setting [3]), 684 ng/mL and 522 ng/mL; in data set [1] (setting [4]), 635 ng/mL and 474 ng/mL and 481 ng/mL and 454 ng/mL and 555 ng/mL. Also, the Conc. brain in data set [1] (setting [2]) was 1223 ng/mL and 1325 ng/mL; in data set [1] (setting [3]), 1772 ng/mL and 1318 ng/mL; in data set [1] (setting [4]), 1634 ng/mL and 1323 ng/mL and 1291 ng/mL and 1188 ng/mL and 1436 ng/mL. Moreover, the “concentration of the compound in the brain based on the total dose” value in data set [1] (i.v. 10 mg/kg) worked out at 0.1%. Besides, the “metabolism after intravenous administration (plasma concentration of compound and metabolites over time)” value in data set [1] is “more stable than the compound (3) and was present for a long time”. The “stability in the plasma” value in the data set “stability in the plasma” is on record as “stably exist in the plasma”. The “MGMT inhibitory effect compared with O^6-benzylguanine (1)” value at MGMT is on record as “MGMT inhibitory effect similar to O^6-benzylguanine (1); also recorded: slightly higher inhibitory activity than O^6-BG (1)”.
As to `Cc1ccc(COc2nc(N)nc3nc[nH]c23)cc1` [Compound 3, O^6-(4-methylbenzyl) guanine], in data set [1] (setting [5]), the concentration at 32 min was 231 ng/mL and the concentration at 44 min was determined as 118 ng/mL. In data set [1] (brain, i.v. 10 mg/kg), the Kp at 30 min was 0.3. In data set [1] (setting [6]), the concentration at 32 min came to 959 ng/mL and the concentration at 44 min was found to be 470 ng/mL. The Kp in data set [1] (brain, i.v. 10 mg/kg, brain 32 min, under anaesthesia, fasting, read-out: Brain/Plasma ratio) was 0.386. The Kp in data set [1] (brain, i.v. 10 mg/kg, brain 44 min, under anaesthesia, fasting, read-out: Brain/Plasma ratio) was found to be 0.189. The concentration at 30 min in data set [1] (plasma, average (n = 3), 30 min after i.v. 10 mg/kg of 3, rat under anaesthesia and fasting, other rats than brain sample, read-out: Conc. Plasma) was 2480 ng/mL. Besides, in data set [1] (i.v. 10 mg/kg), the “accumulation in the brain” value is listed as “accumulated in the brain” and the “concentration of the compound in the brain based on the total dose” value is recorded as 0.1%. Also, the “metabolism after intravenous administration (plasma concentration of compound and metabolites over time)” value in data set [1] is given as “quickly metabolized to unknown, more polar compounds within 240 minutes”. Besides, in “stability in the plasma”, the “stability in the plasma” value is reported as “stably exist in the plasma”. For the same compound, on MGMT, the “MGMT inhibitory effect compared with O^6-benzylguanine (1)” value was “MGMT inhibitory effect similar to O^6-benzylguanine (1); also recorded: slightly higher inhibitory activity than O^6-BG (1)”.
